Experimental data reported in ChEMBL document CHEMBL3392922, “MMV box screening in the Dd2 P. falciparum strain”.

test system: Plasmodium falciparum; experiment: MMV: IC50 determined against P. falciparum Dd2-luc strain using a Malaria Sybr Green I Fluorescence assay. Starting conditions were 1% trophozoite synchronised parasites at 2% haematocrit. Fluorescence detection completed after 48hr incubation at 37 degrees C under 1% O2, 3% CO2 and balance N2.; format: functional, organism-based; settings: Dd2, 48 h

Structure (SMILES) | IC50 [nM]
CCOc1ccc(CCNC(=O)c2cccs2)cc1OCC | 2720
COc1ccc(C2Sc3ccccc3N=C3C2=C(O)c2ccccc23)cc1 (stereo not drawn) | 723
CCOc1cc(CNC(C)C(O)c2ccccc2)cc(Cl)c1OCC (stereo not drawn) | 1910
CCOc1cc(Br)c(C(C)NC(=O)c2cccc(OC)c2)cc1OCC (stereo not drawn) | 1440
CC1CCN(Cc2ccc(NC(=O)c3cc4ccc5cccnc5c4[nH]3)cc2)CC1 | 242
CCN(CC)CCNc1ccnc2cc(Cl)ccc12 | 44
CCCCC(O)(c1ccc(Cl)cc1)C(CN1CCOCC1)c1ccc(Cl)cc1 (stereo not drawn) | 3570
O=C(Nc1nc(-c2ccccn2)cs1)c1ccccc1Br | 1610
Cc1[nH]c(-c2ccc(F)cc2)cc1C(=O)NC1CCN(Cc2ccccc2)CC1 | 1670
Cc1cc(NC(=O)c2ccc(-c3ccccc3)cc2)no1 | 775
O=C(NCC1Cc2cccc(-c3ccncc3)c2O1)c1csc2c1CCCC2 (stereo not drawn) | 1690
CCCCCCc1cc(O)c2c3c(c(=O)oc2c1)CCC(C)C3 (stereo not drawn) | 568
CN1CCN(c2c3c(c(C#N)c4nc5ccccc5n24)CCC3)CC1 | 1490
Cc1ccc(NC(=O)Nc2cccc(Cl)c2)cc1F | 1210
COc1ccc(Nc2cc(C)nc(NCc3ccccc3)n2)cc1 | 311
CC1CC2=C(CC1CNCCCN(C)C)C(C)(C)CCC2 (stereo not drawn) | 476
CCN(CC)CCNc1ccnc2cc3ccccc3cc12 | 465
CCN1CCN(c2c(C(=O)c3ccccc3)cnc3cc(OC)c(OC)cc23)CC1 | 3340
COc1cc(C(=O)ON=C(N)Cc2cccc3ccccc23)cc(OC)c1OC | 3940
COc1ccc(C(=O)C2CC2c2ccc(Cl)cc2)cc1 (stereo not drawn) | 3290
O=C(NC(c1ccccc1)c1ccc2cccnc2c1O)c1ccccc1 (stereo not drawn) | 426
Cc1ccc(Nc2nc(NCCO)c3ccccc3n2)cc1C | 987
COc1ccccc1N1CCN(C(CNS(=O)(=O)c2ccc(Cl)cc2)c2cccnc2)CC1 (stereo not drawn) | 913
CCOc1ccc2nc(C)cc(Nc3ccc(N(C)C)cc3)c2c1 | 998
Oc1ccc(-c2nc(-c3ccc4oc5ccc(-c6[nH]c(-c7ccc(O)cc7)nc6-c6ccccc6)cc5c4c3)c(-c3ccccc3)[nH]2)cc1 | 683

Structure (SMILES) | IC50 [nM]
Cc1cc(NCCN2CCCCC2)c2ccc3ccccc3c2n1 | 309
COc1ccccc1N1C(=N)SC(=Cc2ccc(OCc3ccccc3F)cc2)C1=O | 809
COc1ccc2nc(C)cc(Nc3ccc(Cl)cc3)c2c1 | 1180
O=C(Nc1ccc(Cl)cc1)N1CCN(c2ccc3nncn3n2)CC1 | 1040
Cc1ccc(-c2cc3c(nn2)-c2ccccc2C3=O)cc1 | 1260
O=C(Nc1ccccc1O)c1ccc(-c2ccc(Cl)cc2Cl)o1 | 2990
COc1ccc(CN2CCN(Cc3ccccc3)CC2)c(O)c1 | 1140
CCOc1cc2c(cc1OCC)C(c1cc(Cl)c(O)c(OCC)c1)NCC2 (stereo not drawn) | 1610
CN1CCN(c2ncnc3c2[nH]c2ccc(Cl)cc23)CC1 | 1180
O=C(Nc1ccc(Cl)cc1C(=O)Nc1ccncc1)c1ccc(Cl)cc1Cl | 866
CN(C)CCCNc1c2ccccc2nc2ccccc12 | 237
COc1ccc(-c2nonc2NC(=O)c2cccc(C)c2)cc1OC | 904
CC(C)(C)c1ccc2c(c1)CN(Cc1ccc(Cl)cc1)CO2 | 196
O=C(CCc1ccco1)NC1CCN(CC2(c3ccc(Cl)cc3)CCC2)CC1 | 1030
COc1cccc(C=Cc2nc(=O)c3ccccc3o2)c1OC | 426
O=C(NC1CCCC1)c1ccc(N2CCC(NCc3cccc(C(F)(F)F)c3)CC2)cc1 | 468
COc1cc(SC)ccc1C(=O)N1CCCC(C)C1 (stereo not drawn) | 3950
CCC1(C)CC(CCNCc2ccccc2O)(c2ccc(C)cc2)CCO1 (stereo not drawn) | 141
OC(CNCC1CCCO1)Cn1c2ccc(Cl)cc2c2cc(Cl)ccc21 (stereo not drawn) | 734
COc1ccc(-c2cc3c(nn2)-c2ccccc2C3=O)cc1 | 731
Oc1ccccc1CN1CCC2(CCCN(Cc3ccccc3F)C2)C1 (stereo not drawn) | 647
O=C(CSc1ccc2nnc(-c3cccc(F)c3)n2n1)Nc1ccc2c(c1)OCO2 | 541
FC(F)(F)c1cccc(CNC2CCN(CCc3ccccc3)CC2)c1 | 490
Cc1cc(Nc2ccc3ccccc3c2)n2ncnc2n1 | 156
CCC(=O)Nc1nnc(Cc2ccc(OC)c(OC)c2)s1 | 704

Structure (SMILES) | IC50 [nM]
COc1ccccc1CNC(=O)CCn1c(=O)[nH]c2ccccc2c1=O | 518
CCOc1cc2c(cc1OCC)C(c1cc(C)c(O)c(C)c1)NCC2 (stereo not drawn) | 654
O=C(NC1CCN(Cc2ccccc2)CC1)c1cc(-c2ccncc2)nc2ccc(Cl)cc12 | 1480
CCCCCCn1c(=N)n(CC(O)COc2cccc(C)c2)c2ccccc21 (stereo not drawn) | 1800
CC(C)(C)CC(C)(C)NCC(O)COc1ccc2c(c1)CCC2 (stereo not drawn) | 1760
Oc1c(CN2CCN(c3ccccc3F)CC2)cc(Br)c2cccnc12 | 1340
CCc1c(C)c(=N)c2ccccc2n1C | 2770
CCN(CC)CCn1c(=N)n(CC(O)c2ccc(Cl)c(Cl)c2)c2ccccc21 (stereo not drawn) | 404
CC(=O)Nc1nnc(SCc2c(C)cc(C(C)(C)C)cc2C)s1 | 794
CN1c2ccccc2N(C)C1c1ccc2c(c1)OCO2 | 1150
CCCC(c1nnnn1C1CCCCC1)N1CCN(C(=O)c2ccco2)CC1 (stereo not drawn) | 518
CCCn1c(=N)c(C(=O)NC2CCCCC2)cc2c(=O)n3cccc(C)c3nc21 | 1640
CN1CCN(c2nc(Nc3ccc(O)cc3)nc3ccccc23)CC1 | 1410
COc1ccc(CN2CCCC(C(=O)c3ccc(C(F)(F)F)cc3)C2)c(O)c1 (stereo not drawn) | 635
CCOc1ccc(-c2nc(NC(=O)c3cccc(S(C)(=O)=O)c3)sc2C)cc1 | 1440
CSc1ccccc1C(=O)Nc1nc(-c2ccccn2)cs1 | 1800
CCCCNc1nc(NC(C)(C)C)nc(NC(C)(C)C)n1 | 893
CCOC(=O)C1=C(C)N=c2sc(=Cc3ccccc3O)c(=O)n2C1c1ccc(OC)c2ccccc12 (stereo not drawn) | 1520
CCN(CC)c1ccc(NC(=O)c2cccs2)cc1 | 514
CC(C)(C)C(=O)Nc1ccc(C(=O)Nc2cccc(-c3nc4ccccc4[nH]3)c2)cc1 | 753
CCOc1cc2c(cc1OCC)C(c1cc(OC)c(O)cc1Cl)NCC2 (stereo not drawn) | 120
O=C(Nc1ccc(Br)cc1)Nc1cccc(Cl)c1 | 3590
Cc1ccnc(NC(c2cccc(OCc3ccccc3)c2)c2ccc3cccnc3c2O)c1 (stereo not drawn) | 963
